Results reported in publication PMC10714399, “Open Source Antibiotics: Simple Diarylimidazoles Are Potent against Methicillin-Resistant Staphylococcus aureus” (ACS Infectious Diseases, 2023).
Values after ≈ are worked out from the molar mass of the structure shown.

Experiments:
[1] = test system: Staphylococcus aureus ATCC 43300 MRSA; test: CO-ADD antibacterial assay (growth inhibition, MIC), MRSA; type: cell-based; conditions: read-out: MRSA MIC (CO-ADD)
Method: Hit Confirmation of active compounds by whole cell growth inhibition assays was conducted as an 8-point dose response to determine the Minimum Inhibitory Concentration (MIC), in duplicate (n=2). The inhibition of growth is measured against those microorganisms that […]
Included in the Hit Confirmation were 5 bacteria: Escherichia coli, Klebsiella pneumoniae, Acinetobacter baumannii, Pseudomonas aeruginosa and Staphylococcus aureus, and 2 fungi Candida albicans and Cryptococcus neoformans. […]
Assay Parameters Bacteria Fungi HEK293 Haemolysis […]
Duplicate (n=2) Duplicate (n=2) Duplicate (n=2) Duplicate (n=2)
QC Control MIC: Control MIC: Control CC50: Control HC10:
Non-Binding Non-Binding TC, 384-well Polypropylene
Plates Surface (NBS), Surface (NBS), black wall/clear 384-well and 384-well plate 384-well plate bottom polystyrene 384-
Cation-adjusted Yeast Nitrogen DMEM
Media Mueller Hinton Base supplemented 0.9% NaCl
Hit Confirmation outcomes are detailed in individual Project reports, personalised for each Project Submission for each CO-ADD user.
Please see your data sheet with file extension P0XXX_HC_data.xlsx, for example CO-ADD Project P0100, P0100_HC_data.xlsx
Study: HC_data ID: HC-Procedures & Materials
Date: Last updated June 2018 Confidential Page 3 of 11
(1 picture or pasted object on this page, not shown here)
Samples were provided by the collaborator and stored frozen at -20 °C. Samples were prepared in DMSO and water to a final testing concentration of 32 µg/mL or 20 µM (unless otherwise indicated in the data sheet) and serially diluted 1:2 fold for 8 times. Each sample concentration was prepared in 384-well plates, non-binding surface plate (NBS; Corning 3640) for each bacterial/fungal strain, tissue-culture treated (TC-treated; Corning 3712/3764) black for mammalian cell types and polypropylene 384-well (PP; Corning 3657) for haemolysis assays, all in duplicate (n=2), and keeping the final DMSO concentration to a maximum of 0.5%. All the sample preparation was done using liquid handling robots. […]
detailed in the Data sheet for the individual Project.
All bacteria were cultured in Cation-adjusted Mueller Hinton broth (CAMHB) at 37 °C overnight. A sample of each culture was then diluted 40-fold in fresh broth and incubated at 37 °C for 1.5-3 h. The resultant mid-log phase cultures were diluted (CFU/mL measured by OD600), then added to each well of the compound containing plates, giving a cell density of 5×10^5 CFU/mL and a total volume of 50 µL. All the plates were covered and incubated at 37 °C for 18 h without shaking.
Inhibition of bacterial growth was determined measuring absorbance at 600 nm (OD600), using a Tecan M1000 Pro monochromator plate reader. The percentage of growth inhibition was calculated for each well, using the negative control (media only) and positive control (bacteria without inhibitors) on the same plate as references.
The percentage of growth inhibition was calculated for each well, using the negative control (media only) and positive control (bacteria without inhibitors) on the same plate. The MIC […]
by an inhibition ≥ 80%. In addition, the maximal percentage of growth inhibition is reported as DMax, indicating any compounds with partial activity.
Date: Last updated June 2018 Confidential Page 5 of 11
Material Code Brand/Supplier Cat No.
Compound preparation plate, Polypropylene PP Corning 3364
Assay Plates – Antimicrobial
Non-binding surface NBS 384w Corning 3640
Assay Plates – Cytotoxicity
Tissue culture treated Black/Clear bottom 384w Corning 3712
Assay Plates - Haemolysis PP-Haem Corning 3657 […]
Growth media - bacteria CAMHB Bacto Laboratories 212322
Culture agar - fungi YPD Becton Dickinson 242720
Growth media - fungi YNB Becton Dickinson 233520
Resazurin Sigma-Aldrich R7017
Dulbecco's Modified Eagle Medium DMEM Life Technologies 11995-073
Foetal Bovine Serum FBS Bovogen FFBS-500
0.9% NaCl Saline Baxter AHF7124
Sample Name Sample ID MW Conc. Solvent Source […]

[2] = Human liver microsome intrinsic clearance; type: in vitro ADME; conditions: human liver microsomes, NEU

| Structure (SMILES) | MIC [1] | HLM CLint (NEU) [2] | microsomal CLint ([2]; read-out: HLM CLint (NEU)) |
| --- | --- | --- | --- |
| c1ccc(-c2nc3n(c2-c2ccc4sccc4c2)CCC3)nc1 [OSA_000822] | 2 µg/mL (≈ 6.3 µM) | 61.5 uL/min/mg protein |  |
| c1ccc(-c2nc3n(c2-c2ccc4occc4c2)CCC3)nc1 [compound 821] | 4 µg/mL (≈ 13.3 µM) |  | 63.5 µL/min/mg |
